Values of other authors in US20040049352A1, “Designing modulators for glycosyltransferases” (priority 2000, published 2004).

Target: T1, GlcNAc-T II (Rattus norvegicus, UniProt Q09326)
T1 sequence (Q09326 1-442): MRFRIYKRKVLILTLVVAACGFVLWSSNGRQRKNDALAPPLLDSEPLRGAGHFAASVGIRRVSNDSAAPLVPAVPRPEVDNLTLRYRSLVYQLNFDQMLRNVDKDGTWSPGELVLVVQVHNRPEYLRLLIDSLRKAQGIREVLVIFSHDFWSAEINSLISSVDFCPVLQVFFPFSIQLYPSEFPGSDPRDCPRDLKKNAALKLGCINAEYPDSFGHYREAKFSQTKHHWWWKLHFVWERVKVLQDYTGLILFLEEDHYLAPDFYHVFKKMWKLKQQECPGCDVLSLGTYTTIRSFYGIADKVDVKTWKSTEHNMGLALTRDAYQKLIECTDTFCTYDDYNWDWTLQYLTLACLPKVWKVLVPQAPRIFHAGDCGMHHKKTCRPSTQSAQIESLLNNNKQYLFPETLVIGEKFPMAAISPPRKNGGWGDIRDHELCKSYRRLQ
Conditions: inhibition studies

Compound	binding to the enzyme GlcNAc-T II
CC(=O)N[C@H]1[C@@H](OP(=O)(O)OP(=O)(O)OC[C@H]2O[C@@H](n3ccc(=O)[nH]c3=O)[C@H](O)[C@@H]2O)O[C@H](CO)[C@H](O)[C@@H]1O [UDP-GalNAc]	do bind
CC(=O)N[C@@H]1[C@@H](O)[C@H](O)[C@@H](CO)O[C@@H]1O [GlcNAc, 2-acetamido-2-deoxy-α-D-glucopyranose]	neither GlcNAc nor GlcNAc-α-l-phosphate binds
CC(=O)N[C@H]1[C@@H](OP(=O)(O)O)O[C@H](CO)[C@@H](O)[C@@H]1O [GlcNAc-α-l-phosphate]	neither GlcNAc nor GlcNAc-α-l-phosphate binds
